System: MV-4-11 cells
Test: Gene expression microarray analysis (Affymetrix PrimeView) and GSEA
Format: cell-based, human
Design: RFU PODN (11730768_x_at) / Fold change /veh PODN (11730768_x_at) / RFU LINC00158 (11744669_a_at) / Fold change /veh LINC00158 (11744669_a_at) / RFU DUSP10 (11751237_a_at) / Fold change /veh DUSP10 (11751237_a_at) / RFU ID3 (11757404_x_at) / Fold change /veh ID3 (11757404_x_at) / RFU PLEKHG5 (11737974_s_at) / Fold change /veh PLEKHG5 (11737974_s_at) / RFU LRRC4B (11730491_at) / Fold change /veh LRRC4B (11730491_at) / RFU GIMAP4 (11747438_a_at) / Fold change /veh GIMAP4 (11747438_a_at) / RFU KRT8 (11758183_x_at) / Fold change /veh KRT8 (11758183_x_at) / RFU CNN1 (11734310_a_at) / Fold change /veh CNN1 (11734310_a_at) / RFU VPS37D (11726825_at) / Fold change /veh VPS37D (11726825_at) / RFU C10orf10 (11716522_x_at) / Fold change /veh C10orf10 (11716522_x_at) / RFU KIR2DL2 /// KIR2DL4 /// KIR2DL5A /// KIR2DL5B /// KIR2DS1 /// KIR2DS2 /// KIR2DS3 /// KIR2DS4 /// KIR3DL3 /// KIR3DL3 /// KIR3DS1 (11738374_at) / Fold change /veh KIR2DL2 /// KIR2DL4 /// KIR2DL5A /// KIR2DL5B /// KIR2DS1 /// KIR2DS2 /// KIR2DS3 /// KIR2DS4 /// KIR3DL3 /// KIR3DL3 /// KIR3DS1 (11738374_at) / RFU C1QL1 (11718748_at) / Fold change /veh C1QL1 (11718748_at) / RFU TMPRSS4 (11747572_a_at) / Fold change /veh TMPRSS4 (11747572_a_at) / RFU HAMP (11756126_x_at) / Fold change /veh HAMP (11756126_x_at) / RFU RNFT2 (11725882_a_at) / Fold change /veh RNFT2 (11725882_a_at) / RFU NR4A2 (11747474_a_at) / Fold change /veh NR4A2 (11747474_a_at) / RFU ABCC12 (11746883_a_at) / Fold change /veh ABCC12 (11746883_a_at) / RFU TMEM136 (11760407_x_at) / Fold change /veh TMEM136 (11760407_x_at) / RFU CLDN22 /// WWC2 (11732394_at) / Fold change /veh CLDN22 /// WWC2 (11732394_at) / RFU HLA-DPB1 (11760878_x_at) / Fold change /veh HLA-DPB1 (11760878_x_at) / RFU SPINT1 (11716480_a_at) / Fold change /veh SPINT1 (11716480_a_at) / RFU GAP43 (11754022_s_at) / Fold change /veh GAP43 (11754022_s_at) / RFU A4GNT (11735810_at) / Fold change /veh A4GNT (11735810_at) / RFU PRB3 (11715151_x_at) / Fold change /veh PRB3 (11715151_x_at) / RFU TUBB4B (11761932_at) / Fold change /veh TUBB4B (11761932_at) / RFU CAPN14 (11732068_a_at) / Fold change /veh CAPN14 (11732068_a_at) / RFU TMCC2 (11721928_a_at) / Fold change /veh TMCC2 (11721928_a_at) / RFU IRGQ (11745062_a_at) / Fold change /veh IRGQ (11745062_a_at) / RFU FAM174B (11720279_a_at) / Fold change /veh FAM174B (11720279_a_at) / RFU TMPRSS4 (11748680_a_at) / Fold change /veh TMPRSS4 (11748680_a_at) / RFU FAM212B (11763350_a_at) / Fold change /veh FAM212B (11763350_a_at) / RFU PLEKHG5 (11743358_a_at) / Fold change /veh PLEKHG5 (11743358_a_at) / RFU ZSCAN30 (11745921_a_at) / Fold change /veh ZSCAN30 (11745921_a_at) / RFU CMKLR1 (11741424_a_at) / Fold change /veh CMKLR1 (11741424_a_at) / RFU LOC101060620 /// MAPK8IP1 (11723275_at) / Fold change /veh LOC101060620 /// MAPK8IP1 (11723275_at) / RFU SPTSSB (11747773_x_at) / Fold change /veh SPTSSB (11747773_x_at) / RFU PRSS12 (11739890_at) / Fold change /veh PRSS12 (11739890_at) / RFU BIN1 (11741810_x_at) / Fold change /veh BIN1 (11741810_x_at) / RFU WNT11 (11732464_a_at) / Fold change /veh WNT11 (11732464_a_at) / RFU C10orf10 (11716521_a_at) / Fold change /veh C10orf10 (11716521_a_at) / RFU C5orf56 (11738089_at) / Fold change /veh C5orf56 (11738089_at) / RFU CYB561 (11721691_x_at) / Fold change /veh CYB561 (11721691_x_at) / RFU ANKRD19P (11752326_a_at) / Fold change /veh ANKRD19P (11752326_a_at) / RFU OR2T12 /// OR2T33 /// OR2T8 (11738714_s_at) / Fold change /veh OR2T12 /// OR2T33 /// OR2T8 (11738714_s_at) / RFU VCAN (11748164_a_at) / Fold change /veh VCAN (11748164_a_at) / RFU JSRP1 (11732532_at) / Fold change /veh JSRP1 (11732532_at) / RFU KRTAP10-11 (11738290_x_at) / Fold change /veh KRTAP10-11 (11738290_x_at) / RFU MYO3A (11730013_a_at) / Fold change /veh MYO3A (11730013_a_at) / RFU EBF3 (11725865_a_at) / Fold change /veh EBF3 (11725865_a_at) / RFU CAMK2N1 (11719241_x_at) / Fold change /veh CAMK2N1 (11719241_x_at) / RFU C5orf56 (11738088_a_at) / Fold change /veh C5orf56 (11738088_a_at) / RFU OLFML3 (11715873_a_at) / Fold change /veh OLFML3 (11715873_a_at) / RFU LOC100653217 /// NTM (11731650_a_at) / Fold change /veh LOC100653217 /// NTM (11731650_a_at) / RFU MAPK11 (11762145_a_at) / Fold change /veh MAPK11 (11762145_a_at) / RFU FIZ1 (11724087_x_at) / Fold change /veh FIZ1 (11724087_x_at) / RFU OASL (11726364_x_at) / Fold change /veh OASL (11726364_x_at) / RFU SOX15 (11748057_x_at) / Fold change /veh SOX15 (11748057_x_at) / RFU CD79A (11719716_a_at) / Fold change /veh CD79A (11719716_a_at) / RFU HIST1H1D (11736915_at) / Fold change /veh HIST1H1D (11736915_at) / RFU CASKIN2 (11723855_a_at) / Fold change /veh CASKIN2 (11723855_a_at) / RFU LOC730098 (11760151_x_at) / Fold change /veh LOC730098 (11760151_x_at) / RFU OR4N2 (11742367_at) / Fold change /veh OR4N2 (11742367_at) / RFU PRRT2 (11749266_a_at) / Fold change /veh PRRT2 (11749266_a_at) / RFU SNX32 (11753110_a_at) / Fold change /veh SNX32 (11753110_a_at) / RFU CDHR5 (11726645_a_at) / Fold change /veh CDHR5 (11726645_a_at) / RFU RCAN1 (11760418_a_at) / Fold change /veh RCAN1 (11760418_a_at) / RFU FAM167A (11723789_a_at) / Fold change /veh FAM167A (11723789_a_at) / RFU FAM26E (11764081_at) / Fold change /veh FAM26E (11764081_at) / RFU ISYNA1 (11749810_s_at) / Fold change /veh ISYNA1 (11749810_s_at) / RFU ACY1 (11761880_at) / Fold change /veh ACY1 (11761880_at) / RFU 11764098_at / Fold change /veh 11764098_at / RFU SAMD14 (11745864_x_at) / Fold change /veh SAMD14 (11745864_x_at) / RFU NPB (11741838_a_at) / Fold change /veh NPB (11741838_a_at) / RFU TMPRSS6 (11731388_a_at) / Fold change /veh TMPRSS6 (11731388_a_at) / RFU KRTAP10-2 (11738614_at) / Fold change /veh KRTAP10-2 (11738614_at) / RFU ARHGAP8 /// PRR5-ARHGAP8 (11727945_x_at) / Fold change /veh ARHGAP8 /// PRR5-ARHGAP8 (11727945_x_at) / RFU KRTAP5-7 /// NADSYN1 (11734609_at) / Fold change /veh KRTAP5-7 /// NADSYN1 (11734609_at) / RFU RASL12 (11751679_a_at) / Fold change /veh RASL12 (11751679_a_at) / RFU CDKN2B (11736163_a_at) / Fold change /veh CDKN2B (11736163_a_at) / RFU PRF1 (11729649_at) / Fold change /veh PRF1 (11729649_at) / RFU, ZNF638 /// ZNF638-IT1 / Fold change vs veh, ZNF638 /// ZNF638-IT1 / RFU, PANK3 / Fold change vs veh, PANK3 / RFU, SH3YL1 / Fold change vs veh, SH3YL1 / RFU, ZEB2 / Fold change vs veh, ZEB2 / RFU, NRIP1 / Fold change vs veh, NRIP1 / RFU, PTTG1IP / Fold change vs veh, PTTG1IP / RFU, CAPN2 / Fold change vs veh, CAPN2 / RFU, MED14 / Fold change vs veh, MED14 / RFU, SNORA58 / Fold change vs veh, SNORA58 / RFU, C1orf63 / Fold change vs veh, C1orf63 / RFU, LRRFIP1 / Fold change vs veh, LRRFIP1 / RFU, NDUFAF7 / Fold change vs veh, NDUFAF7 / RFU, SLC12A2 / Fold change vs veh, SLC12A2 / RFU, IBTK / Fold change vs veh, IBTK / RFU, ESF1 / Fold change vs veh, ESF1 / Fold change vs veh, TMEM50B / RFU, TAOK1 / Fold change vs veh, TAOK1 / RFU, ACBD3 / Fold change vs veh, ACBD3 / RFU, TMA16 / Fold change vs veh, TMA16 / RFU, RWDD3 / Fold change vs veh, RWDD3 / RFU, BCAT1 / Fold change vs veh, BCAT1 / RFU, EDEM3 / Fold change vs veh, EDEM3 / RFU, TMEM33 / Fold change vs veh, TMEM33 / RFU, WDR75 / Fold change vs veh, WDR75 / RFU, AHCTF1 / Fold change vs veh, AHCTF1 / RFU, TFRC / Fold change vs veh, TFRC / RFU, ZDHHC17 / Fold change vs veh, ZDHHC17 / RFU, NOM1 / Fold change vs veh, NOM1 / RFU, ARL8B / Fold change vs veh, ARL8B / RFU, ZBTB11 / Fold change vs veh, ZBTB11 / RFU, TAMM41 / Fold change vs veh, TAMM41 / RFU, KIAA1704 /// LOC100996395 / Fold change vs veh, KIAA1704 /// LOC100996395 / RFU, ING1 / Fold change vs veh, ING1 / RFU, TRMT61B / Fold change vs veh, TRMT61B / RFU, FUBP3 / Fold change vs veh, FUBP3 / RFU, TP53 / Fold change vs veh, TP53 / RFU, TNKS2 / Fold change vs veh, TNKS2 / RFU, ZFP14 / Fold change vs veh, ZFP14 / RFU, ACTR2 / Fold change vs veh, ACTR2 / RFU, PPP3R1 / Fold change vs veh, PPP3R1 / RFU, PIK3R1 / Fold change vs veh, PIK3R1 / RFU, HNRNPA1 / Fold change vs veh, HNRNPA1 / RFU, RNF170 / Fold change vs veh, RNF170 / RFU, ZNF28 / Fold change vs veh, ZNF28 / RFU, RNGTT / Fold change vs veh, RNGTT / RFU, OGT / Fold change vs veh, OGT / RFU, BRD1 / Fold change vs veh, BRD1 / RFU, MARS / Fold change vs veh, MARS / RFU, ZNF655 / Fold change vs veh, ZNF655 / RFU, FAHD1 / Fold change vs veh, FAHD1 / RFU, BDP1 / Fold change vs veh, BDP1 / RFU, LRRCC1 / Fold change vs veh, LRRCC1 / RFU, ARID1A / Fold change vs veh, ARID1A / RFU, ZNF146 / Fold change vs veh, ZNF146 / RFU, ZNF330 / Fold change vs veh, ZNF330 / RFU, GPN3 / Fold change vs veh, GPN3 / RFU, C9orf123 / Fold change vs veh, C9orf123 / RFU, N4BP2L2 / Fold change vs veh, N4BP2L2 / RFU, ARFIP1 / Fold change vs veh, ARFIP1 / RFU, FAM179B / Fold change vs veh, FAM179B / RFU, BCL10 / Fold change vs veh, BCL10 / RFU, UHRF1BP1L / Fold change vs veh, UHRF1BP1L / RFU, BET1 / Fold change vs veh, BET1 / RFU, CNOT2 / Fold change vs veh, CNOT2 / RFU, ZNF268 / Fold change vs veh, ZNF268 / Fold change vs veh, ZNF507 / RFU, DGCR2 / Fold change vs veh, DGCR2 / RFU, WDSUB1 / Fold change vs veh, WDSUB1 / Fold change vs veh, HSP90B1 /// MIR3652 / RFU, ADSS / Fold change vs veh, ADSS / RFU, GK / Fold change vs veh, GK / RFU, ZNF148 / Fold change vs veh, ZNF148 / RFU, TAF9 / Fold change vs veh, TAF9 / RFU, SLC1A5 / Fold change vs veh, SLC1A5 / RFU, SLMO2 / Fold change vs veh, SLMO2 / RFU, ABCC4 / Fold change vs veh, ABCC4 / RFU, LOC101060439 /// RAP1B / Fold change vs veh, LOC101060439 /// RAP1B / RFU, RFX7 / Fold change vs veh, RFX7 / RFU, GTPBP10 / Fold change vs veh, GTPBP10 / RFU, CNEP1R1 / Fold change vs veh, CNEP1R1 / RFU, BIVM-ERCC5 /// ERCC5 / Fold change vs veh, BIVM-ERCC5 /// ERCC5 / RFU, ILF3 / Fold change vs veh, ILF3 / RFU 11762660_at / Fold change /veh 11762660_at / RFU VCAN (11757783_s_at) / Fold change /veh VCAN (11757783_s_at) / RFU DDX43 (11728927_at) / Fold change /veh DDX43 (11728927_at) / RFU KRT8 (11758188_x_at) / Fold change /veh KRT8 (11758188_x_at) / RFU NKD1 (11759106_at) / Fold change /veh NKD1 (11759106_at) / RFU SRD5A1 (11742802_a_at) / Fold change /veh SRD5A1 (11742802_a_at) / RFU TPSAB1 /// TPSB2 (11721975_s_at) / Fold change /veh TPSAB1 /// TPSB2 (11721975_s_at) / RFU GSTM3 (11746129_a_at) / Fold change /veh GSTM3 (11746129_a_at) / RFU IL23R (11737362_x_at) / Fold change /veh IL23R (11737362_x_at) / RFU TMEM51 (11727254_a_at) / Fold change /veh TMEM51 (11727254_a_at) / RFU PIWIL2 (11732686_x_at) / Fold change /veh PIWIL2 (11732686_x_at) / RFU ORM1 (11744905_x_at) / Fold change /veh ORM1 (11744905_x_at) / RFU CCDC152 (11743942_at) / Fold change /veh CCDC152 (11743942_at) / RFU ECM1 (11717891_a_at) / Fold change /veh ECM1 (11717891_a_at) / RFU IL23R (11748794_a_at) / Fold change /veh IL23R (11748794_a_at) / RFU TNFAIP8L3 (11732012_x_at) / Fold change /veh TNFAIP8L3 (11732012_x_at) / RFU MBOAT4 (11741988_at) / Fold change /veh MBOAT4 (11741988_at) / RFU 11764193_at / Fold change /veh 11764193_at / RFU TMEM53 (11763286_at) / Fold change /veh TMEM53 (11763286_at) / RFU MAGEB2 (11727129_at) / Fold change /veh MAGEB2 (11727129_at) / RFU TMEM200A (11744735_a_at) / Fold change /veh TMEM200A (11744735_a_at) / RFU CCDC152 (11751479_a_at) / Fold change /veh CCDC152 (11751479_a_at) / RFU FAM211A (11726209_a_at) / Fold change /veh FAM211A (11726209_a_at) / RFU RGS16 (11746705_a_at) / Fold change /veh RGS16 (11746705_a_at) / RFU VCAN (11755009_s_at) / Fold change /veh VCAN (11755009_s_at) / RFU RHOB (11743442_s_at) / Fold change /veh RHOB (11743442_s_at) / RFU RGS16 (11720943_a_at) / Fold change /veh RGS16 (11720943_a_at) / RFU RGS16 (11720944_at) / Fold change /veh RGS16 (11720944_at) / RFU, VPS4B / Fold change vs veh, VPS4B / RFU, CREB1 / Fold change vs veh, CREB1 / RFU, DNAJC13 / Fold change vs veh, DNAJC13 / RFU, GNAQ / Fold change vs veh, GNAQ / RFU, CDK5R1 / Fold change vs veh, CDK5R1 / RFU, ZRANB3 / Fold change vs veh, ZRANB3 / RFU, CUL4A / Fold change vs veh, CUL4A / RFU, CCNY / Fold change vs veh, CCNY / RFU, UFL1 / Fold change vs veh, UFL1 / RFU, COG3 / Fold change vs veh, COG3 / RFU, DIAPH2 / Fold change vs veh, DIAPH2 / RFU, SKA2 / Fold change vs veh, SKA2 / RFU, AFF3 / Fold change vs veh, AFF3 / RFU, LMF1 / Fold change vs veh, LMF1 / RFU, IPO11 / Fold change vs veh, IPO11 / RFU, DFFB / Fold change vs veh, DFFB / RFU, FOXP1 / Fold change vs veh, FOXP1 / RFU, CARD8 / Fold change vs veh, CARD8 / RFU, STRN3 / Fold change vs veh, STRN3 / RFU, ADK / Fold change vs veh, ADK / RFU, RASSF2 / Fold change vs veh, RASSF2 / RFU, WIPF1 / Fold change vs veh, WIPF1 / RFU, LARP1B / Fold change vs veh, LARP1B / RFU, RASA1 / Fold change vs veh, RASA1 / RFU, RB1 / Fold change vs veh, RB1 / RFU, PPFIA1 / Fold change vs veh, PPFIA1 / RFU, MAT2A / Fold change vs veh, MAT2A / RFU, CCT5 / Fold change vs veh, CCT5 / RFU, WDR92 / Fold change vs veh, WDR92 / RFU, CUX1 / Fold change vs veh, CUX1 / RFU, TTC7A / Fold change vs veh, TTC7A / RFU, TMEM135 / Fold change vs veh, TMEM135 / RFU, DEPTOR / Fold change vs veh, DEPTOR / RFU, CPM / Fold change vs veh, CPM / RFU, DNAJB6 / Fold change vs veh, DNAJB6 / RFU, CACNA2D3 / Fold change vs veh, CACNA2D3 / RFU, DTX4 / Fold change vs veh, DTX4 / RFU, TFCP2 / Fold change vs veh, TFCP2 / RFU, GMCL1 /// GMCL1P1 / Fold change vs veh, GMCL1 /// GMCL1P1 / RFU, AEBP2 / Fold change vs veh, AEBP2 / RFU, SNHG1 /// SNORD22 /// SNORD25 /// SNORD26 /// SNORD27 /// SNORD28 /// SNORD29 /// SNORD31 / Fold change vs veh, SNHG1 /// SNORD22 /// SNORD25 /// SNORD26 /// SNORD27 /// SNORD28 /// SNORD29 /// SNORD31 / Fold change (Aza/veh), C12orf56 (ProbeSet 11735607_a_at) / Fold change (ACY-1035/veh), C12orf56 (ProbeSet 11735607_a_at) / Fold change (Aza/veh), FGFR1OP (ProbeSet 11751329_s_at) / Fold change (ACY-1035/veh), FGFR1OP (ProbeSet 11751329_s_at) / Fold change (Aza/veh), VPS36 (ProbeSet 11739960_a_at) / Fold change (ACY-1035/veh), VPS36 (ProbeSet 11739960_a_at) / RFU SYPL1 (11715823_x_at) / Fold change /veh SYPL1 (11715823_x_at) / RFU IGFBP7 (11715501_s_at) / Fold change /veh IGFBP7 (11715501_s_at) / RFU REEP3 (11722064_at) / Fold change /veh REEP3 (11722064_at) / RFU IGLL1 (11728026_x_at) / Fold change /veh IGLL1 (11728026_x_at): dose or concentration left out as unconfirmed
Settings: ProbeSet 11722022_s_at; LIST D

Nc1ncn([C@@H]2O[C@H](CO)[C@@H](O)[C@H]2O)c(=O)n1 [azacitidine]
Fold change vs veh, CDK5R1: 0.77

From paper PMC5218480 (PLoS ONE, 2017)
